The source made the active and inactive calls.
What was measured:
[1] = target: Phosphoethanolamine/phosphocholine phosphatase (Homo sapiens, UniProt Q8TCT1); assay: SAR assay for compounds that inhibit PHOSPHO1. [Related pubchem assays (depositor defined):AID1545, AID1565, AID1574]
[2] = target: T1, Phosphomannomutase 2 (Homo sapiens, UniProt O15305); assay: Counter screen SAR assay for PMM2 inhibitors via a fluorescence intensity assay. [Related pubchem assays (depositor defined):AID1545, AID1574]
T1 sequence (O15305 whole entry): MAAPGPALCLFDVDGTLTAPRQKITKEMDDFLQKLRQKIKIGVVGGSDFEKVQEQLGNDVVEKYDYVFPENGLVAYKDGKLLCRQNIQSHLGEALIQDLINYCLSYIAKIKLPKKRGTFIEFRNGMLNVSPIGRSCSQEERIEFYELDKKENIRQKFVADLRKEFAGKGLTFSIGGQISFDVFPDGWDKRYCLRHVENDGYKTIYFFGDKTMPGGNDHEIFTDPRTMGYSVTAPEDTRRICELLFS

[3] = target: T2, Mannose-6-phosphate isomerase (Homo sapiens, UniProt P34949); assay: PMI enzyme inhibitors, confirmation, biochemical, fluorescence intensity (AID 1535)
T2 sequence (P34949 whole entry): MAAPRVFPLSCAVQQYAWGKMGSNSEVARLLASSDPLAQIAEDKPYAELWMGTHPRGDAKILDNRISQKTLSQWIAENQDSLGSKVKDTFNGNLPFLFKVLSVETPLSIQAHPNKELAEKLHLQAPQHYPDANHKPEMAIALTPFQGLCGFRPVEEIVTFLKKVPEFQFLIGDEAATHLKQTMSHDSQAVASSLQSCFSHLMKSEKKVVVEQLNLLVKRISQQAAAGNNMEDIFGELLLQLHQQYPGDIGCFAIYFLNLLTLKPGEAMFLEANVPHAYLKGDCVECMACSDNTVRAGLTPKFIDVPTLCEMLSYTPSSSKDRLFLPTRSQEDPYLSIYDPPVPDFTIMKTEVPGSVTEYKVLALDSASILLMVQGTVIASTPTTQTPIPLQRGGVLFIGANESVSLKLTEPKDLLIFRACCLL

[4] = target: Heat shock protein HSP 90-alpha (Homo sapiens, UniProt P07900); assay type: functional, organism-based
[5] = target: T3, DNA repair protein RAD52 homolog (Homo sapiens, UniProt P43351); assay type: functional, biochemical
T3 sequence (P43351 whole entry): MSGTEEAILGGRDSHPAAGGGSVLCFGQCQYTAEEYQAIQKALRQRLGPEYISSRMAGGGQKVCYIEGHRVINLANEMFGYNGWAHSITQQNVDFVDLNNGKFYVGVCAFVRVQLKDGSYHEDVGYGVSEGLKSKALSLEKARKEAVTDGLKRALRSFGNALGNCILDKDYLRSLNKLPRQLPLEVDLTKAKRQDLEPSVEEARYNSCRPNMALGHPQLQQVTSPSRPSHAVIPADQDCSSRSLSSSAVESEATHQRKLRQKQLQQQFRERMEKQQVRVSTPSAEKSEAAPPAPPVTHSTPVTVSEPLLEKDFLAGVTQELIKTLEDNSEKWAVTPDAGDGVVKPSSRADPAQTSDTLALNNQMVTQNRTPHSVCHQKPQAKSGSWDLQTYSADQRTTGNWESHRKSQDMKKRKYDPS

[6] = target: Induced myeloid leukemia cell differentiation protein Mcl-1 (Homo sapiens, UniProt Q07820); assay type: functional
Sequence of Induced myeloid leukemia cell differentiation protein Mcl-1 (Q07820 whole entry): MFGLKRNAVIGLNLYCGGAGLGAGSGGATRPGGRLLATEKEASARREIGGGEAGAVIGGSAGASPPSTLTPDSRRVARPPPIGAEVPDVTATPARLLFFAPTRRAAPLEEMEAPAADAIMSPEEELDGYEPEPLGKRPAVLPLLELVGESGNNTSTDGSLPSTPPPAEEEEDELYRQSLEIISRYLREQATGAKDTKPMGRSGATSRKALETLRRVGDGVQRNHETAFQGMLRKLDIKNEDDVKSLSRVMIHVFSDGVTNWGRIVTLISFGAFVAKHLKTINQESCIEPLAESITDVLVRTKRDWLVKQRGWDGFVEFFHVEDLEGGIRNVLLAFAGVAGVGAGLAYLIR

[7] = target: T4, Small ubiquitin-related modifier 1 (Homo sapiens, UniProt P63165); assay: inhibitors of SUMO1 peptide binding, dose response, biochemical, fluorescence polarization, uHTS hits (AID 624382); assay type: functional; details: read-out: IC50_Mean
T4 sequence (P63165 whole entry): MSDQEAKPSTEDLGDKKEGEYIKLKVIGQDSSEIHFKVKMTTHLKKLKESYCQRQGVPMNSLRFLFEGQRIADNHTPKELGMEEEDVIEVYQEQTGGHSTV

[8] = target: T4, Small ubiquitin-related modifier 1; assay: inhibitors of SUMO1 partner interactions, dose response, biochemical, FRET (AID 624383); assay type: functional; details: read-out: IC50_Mean
[9] = growth suppression of PTEN-null colon cells, dose response, cell-based, HCT116 PTEN knockout (AID 1047); assay type: functional;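 further: HCT116 colon tumor cells with PTEN knocked out; cells exposed to compound for 60 hours before readout; potency for loss of cell viability measured by luminescence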
[10] = growth suppression of beta-catenin-knockout colon cells, dose response, cell-based, HCT116, human colon tumor (AID 1045); assay type: functional;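 further: HCT116 colon tumor cells with beta catenin knocked out; cells exposed to compound for 60 hours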
[11] = target: Eukaryotic translation initiation factor 4E (Mus musculus, UniProt P63073); assay: eIF4E–eIF4G protein interaction inhibitors, dose response, biochemical, TR-FRET (AID 855); assay type: functional;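 further: potency for disrupting eIF4E binding to eIF4GI seen as loss of FRET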
Sequence of Eukaryotic translation initiation factor 4E (P63073 whole entry): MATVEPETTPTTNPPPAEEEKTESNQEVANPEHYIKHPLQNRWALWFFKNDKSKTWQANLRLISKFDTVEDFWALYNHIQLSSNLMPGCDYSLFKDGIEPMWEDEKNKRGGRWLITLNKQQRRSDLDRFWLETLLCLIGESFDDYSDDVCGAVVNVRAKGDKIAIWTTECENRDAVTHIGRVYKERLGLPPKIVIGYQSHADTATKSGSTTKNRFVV

[12] = target: Intestinal-type alkaline phosphatase (Homo sapiens, UniProt P09923); assay: Dose Response confirmation of uHTS hits from a small molecule inhibitors of human intestinal alkaline phosphatase via a luminescent assay. [Related pubchem assays (depositor defined):AID2544, AID2574]; assay type: functional
Sequence of Intestinal-type alkaline phosphatase (P09923 whole entry): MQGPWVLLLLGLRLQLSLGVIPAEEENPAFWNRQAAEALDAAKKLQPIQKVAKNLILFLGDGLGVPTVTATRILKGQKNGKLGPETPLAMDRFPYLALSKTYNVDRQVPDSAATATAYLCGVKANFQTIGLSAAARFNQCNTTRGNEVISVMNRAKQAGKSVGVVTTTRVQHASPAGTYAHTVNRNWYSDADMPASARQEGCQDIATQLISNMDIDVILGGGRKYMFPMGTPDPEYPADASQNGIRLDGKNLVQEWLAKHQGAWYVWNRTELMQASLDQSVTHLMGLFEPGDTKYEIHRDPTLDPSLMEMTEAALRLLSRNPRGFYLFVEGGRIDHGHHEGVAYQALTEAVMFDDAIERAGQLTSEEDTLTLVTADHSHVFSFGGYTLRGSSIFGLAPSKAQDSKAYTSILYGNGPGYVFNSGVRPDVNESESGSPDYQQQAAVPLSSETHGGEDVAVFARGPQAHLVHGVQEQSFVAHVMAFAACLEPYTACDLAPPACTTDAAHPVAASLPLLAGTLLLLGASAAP

[13] = tested on: Streptococcus sp. 'group A'; assay: growth inhibition of control SK(-) GAS strain, dose response, counter-screen for streptokinase expression inhibitor project, luminescence, kanamycin, BacTiterGlo, confirmation (AID 1900); assay type: functional, organism-based
[14] = target: DNA dC->dU-editing enzyme APOBEC-3G (Homo sapiens, UniProt Q9HC16); assay: Dose Response confirmation of small molecule APOBEC3G DNA Deaminase Inhibitors via a fluorescence-based single-stranded DNA deaminase assay. [Related pubchem assays (depositor defined):AID493012, AID493028]; assay type: functional
Sequence of DNA dC->dU-editing enzyme APOBEC-3G (Q9HC16 whole entry): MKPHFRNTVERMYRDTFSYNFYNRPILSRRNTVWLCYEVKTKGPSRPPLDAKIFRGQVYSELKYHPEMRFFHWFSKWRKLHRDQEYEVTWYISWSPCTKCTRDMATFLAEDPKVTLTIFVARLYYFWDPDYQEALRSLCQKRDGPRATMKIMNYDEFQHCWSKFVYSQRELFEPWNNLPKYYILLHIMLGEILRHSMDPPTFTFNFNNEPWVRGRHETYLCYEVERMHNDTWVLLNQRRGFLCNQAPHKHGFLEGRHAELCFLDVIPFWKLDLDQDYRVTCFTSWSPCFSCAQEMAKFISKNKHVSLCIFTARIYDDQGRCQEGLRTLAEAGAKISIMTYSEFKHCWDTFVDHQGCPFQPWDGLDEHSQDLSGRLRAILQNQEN

[15] = target: Large T antigen (Simian virus 40, UniProt P03070); assay type: functional, Betapolyomavirus macacae;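 further: Confirmatory-stage PubChem screen for compounds that inhibit SV40 T antigen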
Sequence of Large T antigen (P03070 whole entry): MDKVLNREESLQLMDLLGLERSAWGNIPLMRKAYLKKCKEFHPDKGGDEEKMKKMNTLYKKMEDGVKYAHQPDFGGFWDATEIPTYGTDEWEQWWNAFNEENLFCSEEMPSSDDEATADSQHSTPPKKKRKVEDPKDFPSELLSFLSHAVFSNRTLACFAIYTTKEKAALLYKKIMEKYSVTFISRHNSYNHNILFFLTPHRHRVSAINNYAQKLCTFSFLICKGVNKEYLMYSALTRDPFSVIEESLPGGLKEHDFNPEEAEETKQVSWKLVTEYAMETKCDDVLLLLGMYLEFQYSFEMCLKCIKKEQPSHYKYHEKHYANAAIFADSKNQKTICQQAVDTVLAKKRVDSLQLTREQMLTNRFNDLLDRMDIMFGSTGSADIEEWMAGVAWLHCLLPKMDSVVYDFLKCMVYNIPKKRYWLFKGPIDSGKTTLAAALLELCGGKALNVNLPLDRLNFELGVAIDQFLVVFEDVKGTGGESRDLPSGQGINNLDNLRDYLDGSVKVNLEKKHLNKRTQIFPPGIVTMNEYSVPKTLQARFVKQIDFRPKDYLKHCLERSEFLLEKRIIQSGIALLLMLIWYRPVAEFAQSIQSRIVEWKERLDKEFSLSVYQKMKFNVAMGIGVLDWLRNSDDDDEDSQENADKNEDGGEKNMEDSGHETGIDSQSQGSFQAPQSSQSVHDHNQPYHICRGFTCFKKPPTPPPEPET

[16] = target: DNA dC->dU-editing enzyme APOBEC-3A (Homo sapiens, UniProt P31941); assay: APOBEC3A DNA deaminase inhibitors, dose response, biochemical (AID 504722); assay type: functional
Sequence of DNA dC->dU-editing enzyme APOBEC-3A (P31941 whole entry): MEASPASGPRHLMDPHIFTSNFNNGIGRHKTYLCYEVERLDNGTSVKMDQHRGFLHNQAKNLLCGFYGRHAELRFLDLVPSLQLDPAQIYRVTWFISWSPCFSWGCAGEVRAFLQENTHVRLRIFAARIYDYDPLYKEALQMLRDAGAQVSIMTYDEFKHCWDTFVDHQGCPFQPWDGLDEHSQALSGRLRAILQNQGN

[17] = target: T2, Mannose-6-phosphate isomerase; assay: inhibitors of human PMI, primary screen, biochemical, fluorescence intensity, coupled assay (AID 1209)
[18] = target: T2, Mannose-6-phosphate isomerase; assay: human PMI inhibitors, high substrate, primary screen, biochemical, fluorescence intensity, high mannose 6-phosphate (AID 1220)
[19] = target: T5, Polyadenylate-binding protein 1 (Homo sapiens, UniProt P11940); assay: PABP1 MLLE–PAM2 binding inhibitor potency, dose response, biochemical, fluorescence polarization, FITC-PAM2 peptide (AID 602259); assay type: functional; details: read-out: IC50_Mean
T5 sequence (P11940 whole entry): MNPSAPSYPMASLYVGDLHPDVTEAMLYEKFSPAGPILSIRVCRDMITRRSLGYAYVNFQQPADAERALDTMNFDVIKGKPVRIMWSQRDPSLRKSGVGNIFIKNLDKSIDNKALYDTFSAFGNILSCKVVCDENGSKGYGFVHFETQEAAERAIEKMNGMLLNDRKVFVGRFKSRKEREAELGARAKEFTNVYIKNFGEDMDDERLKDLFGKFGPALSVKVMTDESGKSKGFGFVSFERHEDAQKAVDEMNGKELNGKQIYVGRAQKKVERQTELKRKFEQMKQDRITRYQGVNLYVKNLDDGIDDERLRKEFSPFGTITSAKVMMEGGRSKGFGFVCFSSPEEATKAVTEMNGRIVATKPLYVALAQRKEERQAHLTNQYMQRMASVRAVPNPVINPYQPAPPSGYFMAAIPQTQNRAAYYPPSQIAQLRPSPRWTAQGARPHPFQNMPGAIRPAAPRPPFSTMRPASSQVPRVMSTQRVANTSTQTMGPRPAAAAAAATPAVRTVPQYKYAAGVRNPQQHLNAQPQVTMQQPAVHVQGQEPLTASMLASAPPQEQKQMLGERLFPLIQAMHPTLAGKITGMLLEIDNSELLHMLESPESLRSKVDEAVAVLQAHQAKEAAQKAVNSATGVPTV

[20] = tested on: Streptococcus; assay: Group A Streptococcus viability loss, dose response, counter-screen for streptokinase expression inhibitor project, luminescence, BacTiterGlo (AID 1915); assay type: functional, organism-based;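 further: potency for reduction of bacterial viability or growth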
[21] = target: T6, Streptokinase A (Streptococcus pyogenes serotype M1, UniProt P10520); assay: S. pyogenes streptokinase expression inhibitors, potency, dose response, plasminogen activation absorbance, OD405 (AID 1914); assay type: functional, Streptococcus pyogenes M1 GAS;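 further: secreted streptokinase activity via plasminogen activation per viability signal from cell pellet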
T6 sequence (P10520 whole entry): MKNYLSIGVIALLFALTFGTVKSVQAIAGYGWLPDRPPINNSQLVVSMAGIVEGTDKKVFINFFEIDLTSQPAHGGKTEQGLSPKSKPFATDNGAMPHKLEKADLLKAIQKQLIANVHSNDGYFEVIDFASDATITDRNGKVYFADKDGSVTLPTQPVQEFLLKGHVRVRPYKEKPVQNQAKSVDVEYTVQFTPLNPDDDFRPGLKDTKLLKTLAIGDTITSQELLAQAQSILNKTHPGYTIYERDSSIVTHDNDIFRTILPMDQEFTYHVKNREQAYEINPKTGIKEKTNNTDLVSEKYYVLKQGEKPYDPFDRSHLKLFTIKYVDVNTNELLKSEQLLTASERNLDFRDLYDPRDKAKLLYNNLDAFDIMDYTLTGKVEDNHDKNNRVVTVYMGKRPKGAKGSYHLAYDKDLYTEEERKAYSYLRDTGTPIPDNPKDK

[22] = target: Glucose-6-phosphate 1-dehydrogenase (Homo sapiens, UniProt P11413); assay: human G6PD enzyme inhibitors, dose response, selectivity assay for P. falciparum G6PD inhibitor project, biochemical, fluorescence (AID 504792); assay type: functional
Sequence of Glucose-6-phosphate 1-dehydrogenase (P11413 whole entry): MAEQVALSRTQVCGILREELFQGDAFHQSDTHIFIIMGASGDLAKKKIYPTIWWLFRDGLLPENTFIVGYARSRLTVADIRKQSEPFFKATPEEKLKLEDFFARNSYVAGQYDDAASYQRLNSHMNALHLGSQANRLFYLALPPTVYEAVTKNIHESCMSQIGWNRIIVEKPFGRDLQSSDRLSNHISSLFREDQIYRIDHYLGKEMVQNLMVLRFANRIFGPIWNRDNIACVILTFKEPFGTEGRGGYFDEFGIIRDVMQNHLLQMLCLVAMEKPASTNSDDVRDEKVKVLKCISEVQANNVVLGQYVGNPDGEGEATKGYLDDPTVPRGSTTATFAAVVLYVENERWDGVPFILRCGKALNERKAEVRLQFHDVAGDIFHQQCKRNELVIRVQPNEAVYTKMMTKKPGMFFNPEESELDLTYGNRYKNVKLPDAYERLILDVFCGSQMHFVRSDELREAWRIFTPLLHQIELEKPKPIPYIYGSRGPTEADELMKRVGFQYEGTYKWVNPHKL

[23] = target: T5, Polyadenylate-binding protein 1; assay: PABP1 MLLE–PAM2 interaction inhibitors, dose response, miRNA deadenylation inhibitor project, biochemical, fluorescence polarization, Cy5-PAM2 peptide, secondary (AID 602260); assay type: functional; details: read-out: IC50_Mean
[24] = target: T7, Protein RecA (Mycobacterium tuberculosis, UniProt P9WHJ3); assay: Fluorescence Cell-Free Homogeneous Dose Retest to Identify Inhibitors of RecA-Intein Splicing Activity. [Related pubchem assays (depositor defined):AID2097, AID2223, AID489010, AID492950]; assay type: functional
T7 sequence (P9WHJ3 whole entry): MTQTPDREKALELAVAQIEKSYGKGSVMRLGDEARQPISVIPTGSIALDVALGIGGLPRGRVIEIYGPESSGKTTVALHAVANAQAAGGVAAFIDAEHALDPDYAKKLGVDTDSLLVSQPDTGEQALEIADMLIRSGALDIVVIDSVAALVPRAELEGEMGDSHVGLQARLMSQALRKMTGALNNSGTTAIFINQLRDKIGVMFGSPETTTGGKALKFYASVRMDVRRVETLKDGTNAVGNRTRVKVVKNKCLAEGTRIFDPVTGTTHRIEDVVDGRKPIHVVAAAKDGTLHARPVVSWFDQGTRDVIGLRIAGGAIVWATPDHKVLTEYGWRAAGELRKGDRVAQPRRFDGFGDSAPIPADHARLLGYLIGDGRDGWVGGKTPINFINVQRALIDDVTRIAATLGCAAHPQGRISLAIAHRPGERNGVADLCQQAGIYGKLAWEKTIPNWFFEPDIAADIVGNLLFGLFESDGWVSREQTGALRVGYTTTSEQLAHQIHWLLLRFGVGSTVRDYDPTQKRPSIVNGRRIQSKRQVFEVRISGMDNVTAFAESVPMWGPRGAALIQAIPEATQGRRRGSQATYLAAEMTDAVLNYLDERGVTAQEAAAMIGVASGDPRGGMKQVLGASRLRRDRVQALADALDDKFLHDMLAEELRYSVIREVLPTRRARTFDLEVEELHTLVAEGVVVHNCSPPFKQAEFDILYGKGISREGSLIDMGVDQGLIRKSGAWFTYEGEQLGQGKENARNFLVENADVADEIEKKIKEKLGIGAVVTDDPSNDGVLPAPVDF

[25] = target: X-box-binding protein 1 (Homo sapiens, UniProt P17861); assay type: functional, Cricetulus griseus;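 further: confirmatory dose-response counter-screen serving a CHOP assay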
Sequence of X-box-binding protein 1 (P17861 whole entry): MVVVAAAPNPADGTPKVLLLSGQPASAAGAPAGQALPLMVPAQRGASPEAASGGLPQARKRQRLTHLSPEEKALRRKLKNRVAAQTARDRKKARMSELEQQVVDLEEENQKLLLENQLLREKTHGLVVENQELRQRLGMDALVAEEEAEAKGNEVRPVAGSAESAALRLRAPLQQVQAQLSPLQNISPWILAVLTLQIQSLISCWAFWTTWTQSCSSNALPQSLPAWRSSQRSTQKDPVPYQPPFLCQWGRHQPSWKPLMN

[26] = target: T8, Replicative DNA helicase DnaB (Mycobacterium tuberculosis, UniProt P9WMR3); assay: DnaB intein splicing inhibitors, dose response, biochemical, cell-free fluorescence (AID 449749); assay type: functional
T8 sequence (P9WMR3 whole entry): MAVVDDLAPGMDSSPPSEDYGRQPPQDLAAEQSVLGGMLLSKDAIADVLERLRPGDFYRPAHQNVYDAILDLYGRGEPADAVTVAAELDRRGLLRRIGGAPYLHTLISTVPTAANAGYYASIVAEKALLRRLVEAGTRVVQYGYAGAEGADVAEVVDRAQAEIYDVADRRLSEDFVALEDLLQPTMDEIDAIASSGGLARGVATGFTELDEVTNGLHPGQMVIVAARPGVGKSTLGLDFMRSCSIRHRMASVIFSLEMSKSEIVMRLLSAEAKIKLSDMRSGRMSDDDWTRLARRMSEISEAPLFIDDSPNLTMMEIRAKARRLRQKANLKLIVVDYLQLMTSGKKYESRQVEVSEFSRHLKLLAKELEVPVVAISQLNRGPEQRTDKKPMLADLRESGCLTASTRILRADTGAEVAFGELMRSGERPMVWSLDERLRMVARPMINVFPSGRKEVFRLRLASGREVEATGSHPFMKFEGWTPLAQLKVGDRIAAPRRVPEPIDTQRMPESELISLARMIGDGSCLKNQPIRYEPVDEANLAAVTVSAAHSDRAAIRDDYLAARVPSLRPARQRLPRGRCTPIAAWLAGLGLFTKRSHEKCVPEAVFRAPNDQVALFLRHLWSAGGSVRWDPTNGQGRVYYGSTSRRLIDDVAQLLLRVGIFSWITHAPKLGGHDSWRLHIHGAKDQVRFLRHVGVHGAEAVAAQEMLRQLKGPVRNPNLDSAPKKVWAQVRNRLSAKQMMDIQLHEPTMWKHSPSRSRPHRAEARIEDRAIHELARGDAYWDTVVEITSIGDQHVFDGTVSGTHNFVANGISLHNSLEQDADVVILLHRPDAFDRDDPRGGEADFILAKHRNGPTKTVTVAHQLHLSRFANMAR

Sequence of Phosphoethanolamine/phosphocholine phosphatase (Q8TCT1 whole entry): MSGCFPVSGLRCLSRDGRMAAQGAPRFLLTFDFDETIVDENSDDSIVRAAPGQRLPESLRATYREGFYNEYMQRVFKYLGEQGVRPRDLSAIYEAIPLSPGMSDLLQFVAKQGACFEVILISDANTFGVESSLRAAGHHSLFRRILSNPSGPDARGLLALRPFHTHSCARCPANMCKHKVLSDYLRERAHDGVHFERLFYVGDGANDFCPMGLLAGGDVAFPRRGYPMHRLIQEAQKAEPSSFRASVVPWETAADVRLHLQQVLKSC

SMILES: O=c1c2ccc(F)cc2sn1-c1cc(Cl)cc(Cl)c1
- IC50 [1]: > 100 µM (inactive)
- IC50 [2]: > 100 µM (inactive)
- IC50 [3]: > 50 µM (inactive)

SMILES: CCCCCCCCCCCCCCCC[n+]1cccc2ccccc21
- AC50 [4]: 2.87 µM (active)
- AC50 [5]: 3.67 µM (active)
- IC50 [6]: 4.32 µM (active)
- IC50 [7]: > 66.6 µM (inactive)
- IC50 [8]: 8.86 µM (active)
- EC50 [9]: 0.295 µM (active)
- EC50 [10]: 0.17 µM (active)
- IC50 [11]: 5.71 µM (active)

SMILES: Cc1cc(NC(=O)c2ccc(N3C(=O)C4C5C=CC(C5)C4C3=O)cc2)no1 (configuration not stated)
- IC50 [12]: > 100 µM (inactive)

SMILES: O=C(Cn1sc2ccccc2c1=O)NC12CC3CC(CC(C3)C1)C2
- EC50 [13]: 0.637 µM (active)
- IC50 [14]: 6.94 µM (active)
- IC50 [15]: 14 µM (active)
- IC50 [16]: > 100 µM (inactive)
- IC50 [17]: > 50 µM (not active)
- IC50 [18]: > 50 µM (not active)
- IC50 [2]: > 100 µM (inactive)
- IC50 [19]: > 66 µM (inactive)
- EC50 [20]: 7.2 µM (active)
- EC50 [21]: > 150 µM (not active)
- IC50 [3]: > 50 µM (inactive)
- EC50 [9]: 30.2 µM (active)
- IC50 [22]: 13.5 µM (active)
- EC50 [10]: 22.4 µM (active)
- IC50 [11]: > 64 µM (inactive)
- IC50 [23]: > 66 µM (inactive)

SMILES: CC1=NN(c2ccccc2)C(=O)/C1=C/c1cc2ccccc2[nH]1
- EC50 [24]: 10.9 µM (active)
- Absolute IC50 (XBP1) [25]: 10 µM
- AC50 [26]: 19.2 µM (active)

SMILES: O=C(CSc1nc(-c2cccs2)cc(C(F)(F)F)n1)NCc1ccccc1
- IC50 [12]: > 100 µM (inactive)

From ChEMBL document CHEMBL1201862, “PubChem BioAssay data set” (2004)
